Experimental data taken from patent EP0498331B1, “N-(aryloxyalkyl)heteroaryl-8-azabicyclo(3.2.1)octanes, intermediates and a process for the preparation thereof and their use as medicaments” (HOECHST-ROUSSEL PHARMACEUTICALS INCORPORATED, priority 1991, dated 1992).
Counter-ions that a name gives are not always drawn. Like-named read-outs stand apart in the source and are kept apart here.

How the values were obtained:
[1] = target: T1, serotonin (5-hydroxytryptamine [5HT]) uptake (Rattus norvegicus, UniProt P31652); test: ³H-serotonin uptake in rat whole brain and hypothalamic synaptosomes; type: biochemical; conditions: inhibition of [³H]-5HT uptake, 50 nM ³H-5HT, rat whole brain minus cerebella or hypothalamus, 37°C for 5 minutes; log-probit analysis; read-out: 5-HT-IC₅₀
T1 construct: Either whole brain minus cerebella or hypothalmus is weighed and homogenized in 9 volumes of ice-cold 0.32 M sucrose; from tissue; host or cells: Male Wistar rat brain (whole brain minus cerebella, or hypothalamus), S1 supernatant / synaptosomes
T1 sequence (P31652 whole entry): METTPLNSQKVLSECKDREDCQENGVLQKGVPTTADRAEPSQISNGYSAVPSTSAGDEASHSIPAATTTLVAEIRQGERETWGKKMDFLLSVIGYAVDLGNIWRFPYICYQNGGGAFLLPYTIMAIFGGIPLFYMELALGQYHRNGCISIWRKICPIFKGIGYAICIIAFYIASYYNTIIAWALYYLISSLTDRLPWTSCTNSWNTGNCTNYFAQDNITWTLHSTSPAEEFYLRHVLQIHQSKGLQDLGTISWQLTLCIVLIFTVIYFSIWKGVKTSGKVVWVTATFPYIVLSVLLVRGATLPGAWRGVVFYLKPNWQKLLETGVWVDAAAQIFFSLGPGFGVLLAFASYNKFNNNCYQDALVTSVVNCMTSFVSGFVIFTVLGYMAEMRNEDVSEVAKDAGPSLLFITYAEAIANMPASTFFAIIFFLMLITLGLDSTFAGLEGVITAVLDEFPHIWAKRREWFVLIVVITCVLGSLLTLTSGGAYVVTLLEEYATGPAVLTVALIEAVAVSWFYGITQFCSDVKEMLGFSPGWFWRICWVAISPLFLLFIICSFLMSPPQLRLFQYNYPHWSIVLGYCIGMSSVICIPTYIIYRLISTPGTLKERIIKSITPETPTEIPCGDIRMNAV
Description: This activity is determined in an assay which measures ³H-serotonin uptake in rat whole brain and hypothalamic synaptosomes. The assay described below is used as a biochemical screen for potential antidepressants which block serotonin (5-hydroxytryptamine [5HT]) uptake.
1. Krebs-Henseleit Bicarbonate Buffer, pH 7.4 (KHBB): Prepare a 1 liter batch containing the following salts.
The batch is aerated for 60 minutes with 95% 0₂/5% CO₂, the pH is checked to insure it is at 7.4 ± 0.1. 2. Add 0.32 M sucrose: 21.9 g of sucrose, q.s. to 200 ml. 3. A 0.1mM stock solution of serotonin creatinine SO₄ is made up in 0.01 N HCl. This is used to dilute the specific activity of the radiolabeled 5HT. 4. 5-[1,2-³H(N)]-Hydroxytryptamine creatinine sulfate (serotonin) specific activity 20-30 Ci/mmol is used. The final desired concentration of ³H-5HT in the assay is 50 nM. The dilution factor is 0.8. The KHBB is made up to contain 62.5 nM of [³H]-5HT. Add to 100 ml of KHBB.
5. For most assays, a 1mM stock solution of the test compound is made up in a suitable solvent and serially diluted such that the final concentration in the assay ranges from 2 X 10⁻⁸ to 2 X 10⁻⁵M. Seven concentrations are used for each assay.
Male Wistar rats are decapitated and the brain rapidly removed. Either whole brain minus cerebella or hypothalmus is weighed and homogenized in 9 volumes of ice-cold 0.32 M sucrose using a Potter-Elvejhem homogenizer. The homogenate is centrifuged at 1000 g for 10 minutes at 0-4°C. The supernatant (S₁) is decanted and is used for uptake determination.
800 µl KHBB + [³H]-5HT 20 µl Vehicle or appropriate drug 200 µl Tissue suspension concentration
Tubes are incubated at 37°C under a 95%O₂/5% CO₂ atmosphere for 5 minutes. For each assay, 3 tubes are incubated with 20 µl of vehicle at 0°C in an ice bath. After incubation all tubes are immediately centrifuged at 4000 g for 10 minutes. The supernatant fluid is aspirated and the pellets dissolved by adding 1 ml of solubilizer (Triton X-100 and 50% ethanol, 1:4 v/v). The tubes are vigorously vortexted, decanted into scintillation vials, and counted in 10 ml of Liquiscint scintillation counting cocktail. Active uptake is the difference between cpm at 37°C and 0°C. The per cent inhibition at each drug concentration is the mean of three determinations. IC₅₀ values are derived from log-probit analysis.

CK-1 male mice = test: climbing mice assay (antagonism of apomorphine-induced climbing); type: in vivo; conditions: Mus musculus, ip, read-out: CLIMBING MOUSE ASSAY (ED₅₀ mg/kg, ip)
Description: The compounds of the present invention are useful for treating psychoses by virtue of their ability to elicit an antipsychotic response in animals. Antipsychotic activity is determined in the climbing mice assay by a method similar to those described by P. Protais, et al., Psychopharmacol., 50:1(1976) and B. Costall, Eur. J. Pharmacol., 50:39 (1978).
Subject CK-1 male mice (23-27 grams) are grouped-housed under standard laboratory conditions. The mice are individually placed in wire mesh stick cages (4" X 10") and are allowed one hour for adaption and exploration of the new environment. Then apomorphine is injected subcutaneously at 1.5 mg/kg, a dose causing climbing in all subjects for 30 minutes. Compounds to be tested for antipsychotic activity are injected intraperitoneally or given oral doses at various time intervals, e.g. 30 minutes, 60 minutes, etc. prior to the apomorphine challenge at a screening dose of 10-60 mg/kg.
For evaluation of climbing, 3 readings are taken at 10, 20 and 30 minutes after apomorphine administration according to the following scale:
Mice consistently climbing before the injection of apomorphine are discarded.
With fully-developed apomorphine climbing, the animals are hanging on to the cage walls, rather motionless, over longer periods of time. By contrast, climbs due to mere motor stimulation usually only last a few seconds.
The climbing scores are individually totaled (maximal score: 6 per mouse over 3 readings) and the total score of the control group (vehicle intraperitoneally-apomorphine subcutaneously) is set to 100%. ED₅₀ values with 95% confidence limits, calculated by a linear regression analysis, of representative compounds of the present invention as well as a standard antipsychotic agent are presented in Table 1.

Question: How did the IC50 [1] turn out when `COc1cc(C(C)=O)ccc1OCCCCN1C2CCC1CC(c1n[nH]c3cc(F)ccc13)C2` (stereo not shown) [[4-[4-[3-[6-Fluoro-1H-indazol-3-yl]-8-azabicyclo[3.2.1]-octan-8-yl]butoxy]-3-methoxyphenyl]ethanone] was run?
Answer: The IC50 was 20 nM.

Question: How did the ED50 (CK-1 male mice) turn out when `COc1cc(C(C)=O)ccc1OCCN1C2CCC1CC(c1noc3cc(F)ccc13)C2` (stereo not shown) [[4-[2-[3-[6-Fluoro-1,2-benzisoxazol-3-yl]-8-azabicyclo[3.2.1]octan-8-yl]ethoxy]-3-methoxyphenyl]ethanone fumarate] was run?
Answer: Its ED50 is 12.5 mg/kg.

Question: For `COc1cc(C(C)=O)ccc1OCCCCN1C2CCC1CC(c1n[nH]c3ccccc13)C2` (stereo not shown) [[4-[4-[3-[1H-Indazol-3-yl]-8-azabicyclo[3.2.1]octan-8-yl]butoxy]-3-methoxyphenyl]ethanone fumarate hemihydrate], which IC50 [1] is on record?
Answer: Its IC50 is 70 nM.

Question: `COc1cc(C(C)=O)ccc1OCCCCN1C2CCC1CC(c1nsc3ccccc13)C2` (stereo not shown) [[4-[4-[3-[1,2-Benzisothiazol-3-yl]-8-azabicyclo[3.2.1]octan-8-yl]butoxy]-3-methoxyphenyl]ethanone monohydrochloride] was tested. Which IC50 [1] did it give?
Answer: The IC50 was 27 nM.

Question: Which ED50 (CK-1 male mice; apomorphine 1.5 mg/kg subcutaneously, climbing score vs control group set to 100%, linear regression analysis) does the source give for `CN1CCN(C2=Nc3cc(Cl)ccc3Nc3ccccc32)CC1` [Clozapine, reference compound] here?
Answer: The ED50 was 8.1 mg/kg.

Question: For `COc1cc(C(C)=O)ccc1OCCN1C2CCC1CC(c1noc3ccccc13)C2` (stereo not shown) [[4-[2-[3-[1,2-Benzisoxazol-3-yl]-8-azabicyclo[3.2.1]octan-8-yl]ethoxy]-3-methoxyphenyl]ethanone fumarate], which IC50 [1] is on record?
Answer: The IC50 was 10 nM.

Question: With `COc1cc(C(C)=O)ccc1OCCCN1C2CCC1CC(c1noc3cc(F)ccc13)C2` (stereo not shown) [[4-[3-[3-[6-Fluoro-1,2-benzisoxazol-3-yl]-8-azabicyclo[3.2.1]octan-8-yl]propoxy]-3-methoxyphenyl] ethanone monohydrochloride] as the compound, how does the ED50 (CK-1 male mice) read?
Answer: Its ED50 is 5 mg/kg.
